Source: patent US7122558B2 (priority 2000, dated 2006)
Structures can show the parent of a compound that is named as a salt.

Molecular target: T1, human muscarinic receptors M3 (Homo sapiens, UniProt P20309)
T1 construct: expressed in transfected cells; host or cells: CHO-K1 (chinese hamster ovary-K1), stably transfected; membrane preparations
Assay: biochemical
Assay type: binding
Details: for inhibition at 0.1 µM: read-out: % INHIBITION concentration: 1.00E−07 M; for inhibition at 0.01 µM: read-out: % INHIBITION concentration: 1.00E−08 M

T1 sequence (P20309 whole entry): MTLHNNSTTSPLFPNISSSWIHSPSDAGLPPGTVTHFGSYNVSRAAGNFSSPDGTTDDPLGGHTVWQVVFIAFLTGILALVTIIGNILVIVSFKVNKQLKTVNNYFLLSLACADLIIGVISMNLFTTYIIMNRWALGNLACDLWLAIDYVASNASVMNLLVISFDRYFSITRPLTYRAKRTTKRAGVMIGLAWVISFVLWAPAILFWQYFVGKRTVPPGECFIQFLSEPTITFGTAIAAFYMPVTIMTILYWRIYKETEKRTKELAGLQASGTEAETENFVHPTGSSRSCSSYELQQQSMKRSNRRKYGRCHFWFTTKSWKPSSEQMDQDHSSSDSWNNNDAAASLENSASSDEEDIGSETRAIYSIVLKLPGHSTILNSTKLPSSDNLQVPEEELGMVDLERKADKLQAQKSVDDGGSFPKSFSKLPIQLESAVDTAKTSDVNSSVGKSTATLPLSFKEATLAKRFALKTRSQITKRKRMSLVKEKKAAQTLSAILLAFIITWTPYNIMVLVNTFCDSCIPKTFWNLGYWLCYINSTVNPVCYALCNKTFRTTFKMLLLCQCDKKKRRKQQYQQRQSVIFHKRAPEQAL

## C=CCC(O)(C(=O)O[C@H]1C[N+]2(CCCOc3ccccc3)CCC1CC2)c1cccs1 (stereo partly drawn) [Example 13, (3R)-3-(2-Hydroxy-2-thien-2-ylpent-4-enoyloxy)-1-(3-phenoxypropyl)-1-azoniabicyclo[2.2.2]octane bromide]
  inhibition at 0.1 µM: 76%
  inhibition at 0.01 µM: 36%

## CCCCCC(O)(C(=O)O[C@H]1C[N+]2(CCCOc3ccccc3)CCC1CC2)c1cccs1 (stereo partly drawn) [Example 16, (3R)-3-(2-Hydroxy-2-thien-2-ylheptanoyloxy)-1-(3-phenoxypropyl)-1-azoniabicyclo[2.2.2]octane trifluoroacetate]
  inhibition at 0.1 µM: 74.2%
  inhibition at 0.01 µM: 36.3%

## O=C(O[C@H]1C[N+]2(CCCOc3ccccc3)CCC1CC2)[C@](O)(c1cccs1)C1CCCC1 [Example 22, (3R)-3-[(2S)-2-Cyclopentyl-2-hydroxy-2-thien-2-ylacetoxy]-1-(3-phenoxypropyl)-1-azoniabicyclo[2.2.2]octane bromide]
  inhibition at 0.1 µM: 81.5%
  inhibition at 0.01 µM: 72%

## O=C(O[C@H]1C[N+]2(CCCc3cccs3)CCC1CC2)[C@](O)(c1cccs1)C1CCCC1 [Example 23, (3R)-3-[(2S)-2-Cyclopentyl-2-hydroxy-2-thien-2-yl-acetoxy]-1-(3-thien-2-ylpropyl)-1-azoniabicyclo[2.2.2]octane trifluoroacetate]
  inhibition at 0.1 µM: 75.6%
  inhibition at 0.01 µM: 63.3%

## O=C(O[C@H]1C[N+]2(CCOc3ccccc3)CCC1CC2)[C@](O)(c1cccs1)C1CCCC1 [Example 24, (3R)-3-[(2S)-2-Cyclopentyl-2-hydroxy-2-thien-2-ylacetoxy]-1-(2-phenoxyethyl)-1-azoniabicyclo[2.2.2]octane bromide]
  inhibition at 0.1 µM: 78%
  inhibition at 0.01 µM: 56.6%

## O=C(O[C@H]1C[N+]2(CCc3ccccc3)CCC1CC2)[C@](O)(c1cccs1)C1CCCC1 [Example 25, (3R)-3-[(2S)-2-Cyclopentyl-2-hydroxy-2-thien-2-ylacetoxy]-1-phenethyl-1-azoniabicyclo[2.2.2]octane trifluoroacetate]
  inhibition at 0.1 µM: 76.1%
  inhibition at 0.01 µM: 62.6%

## O=C(O[C@H]1C[N+]2(CCCc3ccccc3)CCC1CC2)[C@](O)(c1cccs1)C1CCCC1 [Example 26, (3R)-3-[(2S)-2-Cyclopentyl-2-hydroxy-2-thien-2-ylacetoxy]-1-(3-phenylpropyl)-1-azoniabicyclo[2.2.2]octane trifluoroacetate]
  inhibition at 0.1 µM: 75.6%
  inhibition at 0.01 µM: 63.8%

## O=C(O[C@H]1C[N+]2(CCCOc3ccc(F)cc3)CCC1CC2)[C@](O)(c1cccs1)C1CCCC1 [Example 28, (3R)-3-[(2S)-2-Cyclopentyl-2-hydroxy-2-thien-2-ylacetoxy]-1-[3-(4-fluorophenoxy)propyl]-1-azoniabicyclo[2.2.2]octane trifluoroacetate]
  inhibition at 0.1 µM: 78.3%
  inhibition at 0.01 µM: 60.6%

## O=C(O[C@H]1C[N+]2(CCCOc3cccc(O)c3)CCC1CC2)[C@](O)(c1cccs1)C1CCCC1 [Example 31, (3R)-3-[(2S)-2-Cyclopentyl-2-hydroxy-2-thien-2-ylacetoxy]-1-[3-(3-hydroxyphenoxy)propyl]-1-azoniabicyclo[2.2.2]octane trifluoroacetate]
  inhibition at 0.1 µM: 74.3%
  inhibition at 0.01 µM: 54.3%

## Cc1ccccc1OCCC[N+]12CCC(CC1)[C@@H](OC(=O)[C@](O)(c1cccs1)C1CCCC1)C2 [Example 33, (3R)-3-[(2S)-2-Cyclopentyl-2-hydroxy-2-thien-2-ylacetoxy]-1-(3-o-tolyloxypropyl)1-azoniabicyclo[2.2.2]octane trifluoroacetate]
  inhibition at 0.1 µM: 72.8%
  inhibition at 0.01 µM: 46.7%

## N#Cc1cccc(OCCC[N+]23CCC(CC2)[C@@H](OC(=O)[C@](O)(c2cccs2)C2CCCC2)C3)c1 [Example 34, 1-[3-(3-Cyanophenoxy)propyl]-(3R)-3-[(2S)-2-cyclopentyl-2-hydroxy-2-thien-2-ylacetoxy]-1-azoniabicyclo[2.2.2]octane trifluoroacetate]
  inhibition at 0.1 µM: 85.3%
  inhibition at 0.01 µM: 68.3%

## CN(CCC[N+]12CCC(CC1)[C@@H](OC(=O)[C@](O)(c1cccs1)C1CCCC1)C2)c1ccccc1 [Example 36, (3R)-3-[(2S)-2-Cyclopentyl-2-hydroxy-2-thien-2-ylacetoxy]-1-[3-(methylphenylamino)propyl]-1-azoniabicyclo[2.2.2]octane trifluoroacetate]
  inhibition at 0.1 µM: 84.2%
  inhibition at 0.01 µM: 42%

## O=C(O[C@H]1C[N+]2(CCCSc3ccccc3)CCC1CC2)[C@](O)(c1cccs1)C1CCCC1 [Example 37, (3R)-3-[(2S)-2-Cyclopentyl-2-hydroxy-2-thien-2-ylacetoxy]-1-(3-phenylsulfanylpropyl)-1-azoniabicyclo[2.2.2]octane trifluoroacetate]
  inhibition at 0.1 µM: 88.1%
  inhibition at 0.01 µM: 72.6%

## O=C(CCC[N+]12CCC(CC1)[C@@H](OC(=O)[C@](O)(c1cccs1)C1CCCC1)C2)c1ccccc1 [Example 38, (3R)-3-[(2S)-2-Cyclopentyl-2-hydroxy-2-thien-2-ylacetoxy]-1-(4-oxo-4-phenylbutyl)-1-azoniabicyclo[2.2.2]octane trifluoroacetate]
  inhibition at 0.1 µM: 86.3%
  inhibition at 0.01 µM: 57.7%

## O=C(O[C@H]1C[N+]2(CCCOc3ccccc3Cl)CCC1CC2)[C@](O)(c1cccs1)C1CCCC1 [Example 40, 1-[3-(2-Chlorophenoxy)-propyl]-(3R)-3-[(2S)-2-cyclopentyl-2-hydroxy-2-thien-2-ylacetoxy]-1-azoniabicyclo[2.2.2]octane trifluoroacetate]
  inhibition at 0.1 µM: 86.9%
  inhibition at 0.01 µM: 72.7%

## O=C(O[C@H]1C[N+]2(CCCOc3ccc(F)cc3F)CCC1CC2)[C@](O)(c1cccs1)C1CCCC1 [Example 43, (3R)-3-[(2S)-2-Cyclopentyl-2-hydroxy-2-thien-2-ylacetoxy]-1-[3-(2,4-difluorophenoxy)propyl]-1-azoniabicyclo[2.2.2]octane trifluoroacetate]
  inhibition at 0.1 µM: 83.4%
  inhibition at 0.01 µM: 58.7%

## COc1ccc(OCCC[N+]23CCC(CC2)[C@@H](OC(=O)[C@](O)(c2cccs2)C2CCCC2)C3)cc1 [Example 44, (3R)-3-[(2S)-2-Cyclopentyl-2-hydroxy-2-thien-2-ylacetoxy]-1-[3-(4-methoxyphenoxy)propyl]-1-azoniabicyclo[2.2.2]octane trifluoroacetate]
  inhibition at 0.1 µM: 84.6%
  inhibition at 0.01 µM: 44.6%

## O=C(O[C@H]1C[N+]2(CCCOc3ccc4c(c3)OCO4)CCC1CC2)[C@](O)(c1cccs1)C1CCCC1 [Example 46, 1-[3-(Benzo[1,3]dioxol-5-yloxy)propyl]-(3R)-3-[(2S)-2-cyclopentyl-2-hydroxy-2-thien-2-ylacetoxy]-1-azoniabicyclo[2.2.2]octane trifluoroacetate]
  inhibition at 0.1 µM: 87.1%
  inhibition at 0.01 µM: 57.6%

## O=C(O[C@H]1C[N+]2(CCCOc3ccccc3)CCC1CC2)[C@@](O)(c1cccs1)C1CCCC1 [Example 53, (3R)-3-[(2R)-2-cyclopentyl-2-hydroxy-2-thien-2-ylacetoxy]-1-(3-phenoxypropyl)-1-azoniabicyclo[2.2.2]octane bromide]
  inhibition at 0.1 µM: 81.5%
  inhibition at 0.01 µM: 58%

## O=C(O[C@H]1C[N+]2(CCCc3cccs3)CCC1CC2)[C@@](O)(c1cccs1)C1CCCC1 [Example 54, (3R)-3-[(2R)-2-Cyclopentyl-2-hydroxy-2-thien-2-ylacetoxy]-1-(3-thien-2-ylpropyl)-1-azoniabicyclo[2.2.2]octane trifluoroacetate]
  inhibition at 0.1 µM: 72.5%
  inhibition at 0.01 µM: 44.1%

## O=C(O[C@H]1C[N+]2(CCc3ccccc3)CCC1CC2)[C@@](O)(c1cccs1)C1CCCC1 [Example 56, (3R)-3-[(2R)-2-Cyclopentyl-2-hydroxy-2-thien-2-ylacetoxy]-1-phenethyl-1-azoniabicyclo[2.2.2]octane trifluoroacetate]
  inhibition at 0.1 µM: 77.3%
  inhibition at 0.01 µM: 53.8%

## O=C(O[C@H]1C[N+]2(CCCc3ccccc3)CCC1CC2)[C@@](O)(c1cccs1)C1CCCC1 [Example 57, (3R)-3-[(2R)-2-Cyclopentyl-2-hydroxy-2-thien-2-ylacetoxy]-1-(3-phenylpropyl)-1-azoniabicyclo[2.2.2]octane trifluoroacetate]
  inhibition at 0.1 µM: 77.4%
  inhibition at 0.01 µM: 47.1%

## O=C(O[C@H]1C[N+]2(CCCc3cccs3)CCC1CC2)[C@@](O)(c1ccco1)C1CCCC1 [Example 61, (3R)-3-[(2S)-2-Cyclopentyl-2-fur-2-yl-2-hydroxyacetoxy]-1-(3-thien-2-ylpropyl)-1-azoniabicyclo[2.2.2]octane trifluoroacetate]
  inhibition at 0.1 µM: 75.1%
  inhibition at 0.01 µM: 39.9%

## O=C(O[C@H]1C[N+]2(CCCOc3ccccc3)CCC1CC2)[C@](O)(c1ccco1)C1CCCC1 [Example 64, (3R)-3-[(2R)-2-Cyclopentyl-2-fur-2-yl-2-hydroxyacetoxy]-1-(3-phenoxypropyl)-1-azoniabicyclo[2.2.2]octane trifluoroacetate]
  inhibition at 0.1 µM: 78.6%
  inhibition at 0.01 µM: 64.5%

## O=C(O[C@H]1C[N+]2(CCCc3cccs3)CCC1CC2)[C@](O)(c1ccco1)C1CCCC1.O=C([O-])C(F)(F)F [Example 65, (3R)-3-[(2R)-2-Cyclopentyl-2-fur-2-yl-2-hygroxyacetoxy]-1-(3-thien-2-ylpropyl)-1-azoniabicyclo[2.2.2]octane trifluoroacetate]
0.01 µM
  % INHIBITION concentration: 1.00E−08 M: 66.0%
0.1 µM
  % INHIBITION concentration: 1.00E−07 M: 79.8%

## O=C(O[C@H]1C[N+]2(CCCc3ccccc3)CCC1CC2)[C@](O)(c1ccco1)C1CCCC1 [Example 67, (3R)-3-[(2R)-2-Cyclopentyl-2-fur-2-yl-2-hydroxyacetoxy]-1-(3-phenylpropyl)-1-azoniabicyclo[2.2.2]octane trifluoroacetate]
  inhibition at 0.1 µM: 75.1%
  inhibition at 0.01 µM: 52.5%

## O=C(O[C@H]1C[N+]2(CCCc3cccs3)CCC1CC2)[C@](O)(c1ccccc1)C1CCCCC1 [Example 69, (3R)-3-[(2R)-2-Cyclohexyl-2-hydroxy-2-phenylacetoxy]-1-(3-thien-2-ylpropyl)-1-azoniabicyclo[2.2.2]octane trifluoroacetate]
  inhibition at 0.1 µM: 70.8%
  inhibition at 0.01 µM: 43.9%
